From the CheMixHub viscosity set

Assay: xn = mol fraction of the nth substance listed

COCCOCCOC + CCCCO
viscosity [mPa·s], 101 kPa
Conditions	x1 = 0.1051	x1 = 0.2018	x1 = 0.3019	x1 = 0.4029	x1 = 0.5049	x1 = 0.6017	x1 = 0.7049	x1 = 0.7983	x1 = 0.9023
298.15 K	1.866	1.542	1.304	1.178	1.103	1.048	1.019	0.998	0.989
308.15 K	1.48	1.252	1.074	0.983	0.924	0.883	0.863	0.849	0.842
318.15 K	1.186	1.028	0.906	0.827	0.782	0.762	0.74	0.73	0.723

Cc1ccc(S(=O)O[C@@H]2C[C@H](C)CC[C@H]2C(C)C)cc1 (stereo partly drawn) + CCCCO
298 K, 101.3 kPa
Conditions	viscosity [mPa·s]
x1 = 0.00285	2.53
x1 = 0.00515	2.538
x1 = 0.007672	2.595
x1 = 0.01005	2.623
x1 = 0.01302	2.653
x1 = 0.01567	2.683

COCCOCCOC + CCCCOC(C)=O
viscosity [mPa·s], 101.33 kPa
Conditions	x1 = 0.0863	x1 = 0.1754	x1 = 0.2733	x1 = 0.3672	x1 = 0.4639	x1 = 0.5609	x1 = 0.6688	x1 = 0.8022	x1 = 0.8835
298.15 K	0.706	0.734	0.764	0.791	0.822	0.852	0.884	0.924	0.948
303.15 K	0.659	0.684	0.712	0.736	0.764	0.791	0.82	0.856	0.878
308.15 K	0.616	0.639	0.664	0.686	0.714	0.737	0.768	0.796	0.816
313.15 K	0.578	0.599	0.622	0.641	0.665	0.69	0.712	0.742	0.759
318.15 K	0.542	0.562	0.583	0.601	0.622	0.642	0.665	0.692	0.709
